Data reported in paper PMC12368495, “Pharmacokinetic/pharmacodynamic parameters of teicoplanin for predicting clinical outcome of glycopeptide-susceptible Enterococcus faecium bacteraemia” (JAC-Antimicrobial Resistance, 2025).

What was measured:
[1] = tested on: glycopeptide-susceptible Enterococcus faecium (GSEF); experiment: Teicoplanin MIC by gradient diffusion method (Etest) on archived blood isolates; assay type: cell-based; settings: for MICEtest: median (IQR), Etest
Description: For this study, teicoplanin MIC determinations were performed on archived isolates using a commercial automated broth microdilution method with the MicroScan WalkAway-96 Plus system (MICWalkAway) (Beckman Coulter) and gradient diffusion method (MICEtest) (Etest, bioMérieux) following the manufacturer’s instructions. Due to a change in the MIC measurement range during the study period, all isolates were remeasured using the MicroScan WalkAway-96 Plus system for consistency. The MICWalkAway measurement range was 2, 4, 8, and 16 mg/L. The MICEtest results were reviewed and confirmed independently by three clinical microbiologists who were blinded to the clinical outcomes of the patients from whom the isolates were obtained. In cases where disagreement occurred among all three operators, the MIC was retested and determined by the representative operator, taking the initial results into consideration.

[2] = tested on: GSEF bacteraemia; settings: cited from earlier work
[3] = tested on: glycopeptide-susceptible Enterococcus faecium (GSEF); experiment: Teicoplanin MIC by automated broth microdilution (MicroScan WalkAway-96 Plus); assay type: cell-based; settings: all isolates; measurement range 2, 4, 8, 16 mg/L
Description: Blood culture specimens were processed using the BACTEC FX system (Becton Dickinson Microbiology Systems, Sparks, MD, USA). Species identification of bacterial isolates recovered from blood cultures was performed using the MALDI Biotyper 1.0 (Bruker Daltonics, Bremen, Germany). Antimicrobial susceptibilities to ampicillin and teicoplanin were tested using the MicroScan WalkAway system (Beckman Coulter Japan, Tokyo, Japan) and interpreted according to the Clinical and Laboratory Standards Institute (M100-S26) breakpoints.[21] Polymicrobial bacteraemia was defined as cases where one or more microorganisms, in addition to E. faecium, were isolated from the same blood culture and were not classified as contaminants according to the CDC criteria.[16]
For this study, teicoplanin MIC determinations were performed on archived isolates using a commercial automated broth microdilution method with the MicroScan WalkAway-96 Plus system (MICWalkAway) (Beckman Coulter) and gradient diffusion method (MICEtest) (Etest, bioMérieux) following the manufacturer’s instructions. […] In cases where disagreement occurred among all three operators, the MIC was retested and determined by the representative operator, taking the initial results into consideration.

[4] = Teicoplanin trough concentration and Bayesian estimation of AUC24/fAUC24 in patients; assay type: in vivo, human
Description: The primary PK/PD parameter for this study was the ratio of the estimated 24-h free-drug area under the curve to the MIC (fAUC24/MICEtest). The estimation of fAUC24 was based on total Cmin measured during the maintenance phase of therapy (at least 3 days after treatment initiation). Our institutional dosing protocol recommends a loading dose of 8–10 mg/kg administered three times approximately every 12 h within the first 48 h for patients with normal renal function, followed by a maintenance dose of 6 mg/kg once daily from Day 3. This loading regimen is intended to rapidly achieve therapeutic concentrations, allowing Cmin values measured during the maintenance phase to serve as a reliable surrogate for drug exposure. Teicoplanin doses were routinely proposed by a pharmacist using therapeutic drug monitoring (TDM) with a target Cmin for teicoplanin set at 15–30 mg/L in line with guideline recommendations,[22] though actual dosing was determined at the discretion of the attending physician.
The estimation of fAUC24 involved a multi-step process. First, the total drug AUC over a 24-h interval during the maintenance phase (AUC24) was calculated for each patient. This was based on individual total clearance (CLtotal) estimated from the observed Cmin through Bayesian analysis. This analysis employed a previously developed population PK (PopPK) model for Japanese patients constructed by Nakayama et al.[23] This PopPK model was based on data from 120 Japanese adult inpatients with MRSA infections and incorporates creatinine clearance and body weight as covariates, making it applicable to our study population. […] Based on the estimated CLtotal for each patient, the AUC24 was calculated as AUC24 (mg·h/L) = daily maintenance dose (mg)/CLtotal (L/h).[13],[24] Second, to account for the impact of hypoalbuminaemia, a patient-specific unbound fraction (fu) was estimated based on a validated model developed specifically for teicoplanin in a Japanese patient population by Yano et al.[25] The model predicts the fu using the patient’s ALB concentration with the following formula: […]
where ALB is expressed in g/dL.
Finally, the free AUC24 (fAUC24) was estimated by multiplying the total AUC24 by fu. The resulting fAUC24/MICEtest ratio was used for all subsequent PK/PD analyses.
PK parameters for each patient were determined using the TDM software, BMs-Pod (ver 8.06, https://bmspod.web.fc2.com/).[26],[27]

[5] = cited from earlier work
Excerpt: The PK/PD parameter most commonly associated with the clinical efficacy of teicoplanin against MRSA is the ratio of the AUC to the MIC, referred to as AUC/MIC.[10],[11] The target AUC/MIC ratio for teicoplanin against MRSA is approximately 600–900, and achieving this target is known to improve therapeutic outcomes.[12],[13] Furthermore, teicoplanin is a highly protein-bound drug (approximately 90%), and it is the unbound (free) fraction that exerts antimicrobial activity. In critically ill patients, conditions such as hypoalbuminaemia can alter protein binding, potentially affecting the free d ...

[6] = tested on: GSEF bacteraemia; experiment: Clinical outcomes of teicoplanin-treated GSEF bacteraemia (retrospective cohort); assay type: in vivo, human; settings: for Treatment failure: 30-day all-cause mortality or microbiological failure
Description: We conducted a retrospective, single-centre, observational cohort study at The University of Tokyo Hospital between 1 April 2009 and 30 May 2023. The University of Tokyo’s ethics review board approved the study protocol (approval no. 2023138NI) and waived the requirement for written informed consent. The study was conducted in accordance with the ethical standards of the 1964 Declaration of Helsinki and its subsequent amendments. Patients with at least one GSEF-positive blood culture who received teicoplanin during the study period were deemed eligible. The exclusion criteria were as follows: lack of storage of microbiological samples, lack of teicoplanin trough concentration (Cmin), age under 18 years, renal replacement therapy or initiation of teicoplanin treatment more than 72 h after infection. GSEF bacteraemia was defined as one or more blood cultures positive for E. faecium resistant to ampicillin, and susceptible to teicoplanin and vancomycin, accompanied by signs or symptoms of infection consistent with suspected infection sites, as established in previous studies.[9],[15],[16] Polymicrobial infections were included in the analysis. For patients with a history of multiple treatments for GSEF bacteraemia, only the first treatment was considered.
The primary outcome, treatment failure, was defined as a composite of (i) 30-day all-cause mortality or (ii) microbiological failure, defined as persistent bacteraemia (a positive follow-up blood culture obtained >72 h after initiation of appropriate therapy) in patients with at least one follow-up blood culture).[28],[29] In patients without follow-up blood cultures, microbiological failure was not assessed, and treatment failure was determined solely based on 30-day all-cause mortality. […] Secondary outcomes included 90-day all-cause mortality (death within 90 days of the first positive GSEF blood culture), in-hospital mortality (death occurring during hospitalization), relapse (recurrence of GSEF bacteraemia after negative blood cultures following GSEF treatment) and readmission within 90 days of the first positive GSEF blood culture. Relapse was defined as recurrence of GSEF bacteraemia after documented microbiological clearance, confirmed by at least one negative follow-up blood culture. All clinical outcomes and PK parameter estimation (including AUC calculation) were conducted by an infectious disease pharmacist with access to treatment details and patient clinical courses. MIC measurements were performed independently by separate investigators and were integrated only after clinical outcome evaluation was completed. Safety outcomes included (i) incidence of AKI, diagnosed according to the KDIGO criteria (defined as 1.5× increase in sCr from baseline within 7 days or ≥0.3 mg/dL increase within 48 h of baseline following teicoplanin initiation)[30]; (ii) incidence of liver injury, defined as AST ≥ 90 U/L or ALT ≥ 126 U/L (≥3 times the upper limit during teicoplanin treatment)[31]; and (iii) other adverse events associated with teicoplanin use for GSEF bacteraemia.[15]
Continuous variables, expressed as medians with IQRs, were compared between the treatment success and treatment failure groups using the Mann–Whitney U-test. Categorical variables were compared between the two groups using the χ² test or Fisher’s exact test, as appropriate. To identify predictors of treatment failure, several steps were taken for the logistic regression analysis. First, classification and regression tree (CART) analysis was used to identify the optimal cut-off value for the fAUC24/MICEtest associated with treatment failure, according to the previous vancomycin PK/PD study.[32] This created a dichotomous variable for the PK/PD parameter. Next, a multivariable logistic regression model was constructed to assess the independent effect of the fAUC24/MICEtest on treatment failure. […]

[7] = in vivo; cited from earlier work
Description: The estimation of fAUC24 involved a multi-step process. First, the total drug AUC over a 24-h interval during the maintenance phase (AUC24) was calculated for each patient. This was based on individual total clearance (CLtotal) estimated from the observed Cmin through Bayesian analysis. This analysis employed a previously developed population PK (PopPK) model for Japanese patients constructed by Nakayama et al.[23] This PopPK model was based on data from 120 Japanese adult inpatients with MRSA infections and incorporates creatinine clearance and body weight as covariates, making it applicable ...

Substance: teicoplanin
- proportion of isolates with MIC ≤ 0.5 mg/L ([1]; isolates of the cohort): 84.2%
- MICEtest ([1]; treatment failure group (n = 18)): 0.50 (0.35–0.50) mg/L
- MICEtest ([1]; treatment success group (n = 58)): 0.25 (0.13–0.50) mg/L
- effectiveness versus vancomycin ([2]; GSEF bacteraemia treatment): non-inferior to vancomycin
- incidence of acute kidney injury (AKI) versus vancomycin ([2]; in vivo): significantly lower incidence of acute kidney injury (AKI)
- treatment success ratio ([2]; patients with GSEF bacteraemia): 64.9%
- MICWalkAway [3]: ≤ 2 mg/L
- Cmin ([4]; human, in vivo): 18.3 (15.0–23.1) mg/L
- inter-individual variability (CV%) for clearance ([4]; human, in vivo): 39.2%
- inter-individual variability (CV%) for distribution rate parameter K12 ([4]; human, in vivo): 0.1%
- inter-individual variability (CV%) for distribution rate parameter α ([4]; human, in vivo): 4.7%
- inter-individual variability (CV%) for steady-state volume of distribution ([4]; human, in vivo): 43.8%
- median Cmin in both groups ([4]; human, in vivo): approximately 18 mg/L
- Cmin ([4]; total trough concentration, maintenance phase, treatment failure group (n = 18), median (IQR)): 18.4 (9.70–23.1) mg/L
- protein bound [5]: approximately 90%
- overall 30-day mortality rate ([6]; 6/76): 7.9%
- treatment failure, overall ([6]; 18 of 76 patients): 23.7%
- 30-day mortality ([6]; fAUC24/MICEtest < 462 (n = 49)): 6 (12.2) n (%)
- 90-day mortality ([6]; fAUC24/MICEtest < 462 (n = 49)): 17 (34.7) n (%)
- In-hospital mortality ([6]; fAUC24/MICEtest < 462 (n = 49)): 12 (24.5) n (%)
- Readmission within 90 days after bacteraemia ([6]; fAUC24/MICEtest < 462 (n = 49)): 22 (44.9) n (%)
- Relapse ([6]; fAUC24/MICEtest < 462 (n = 49)): 7 (14.3) n (%)
- Treatment failure ([6]; fAUC24/MICEtest < 462 (n = 49)): 17 (34.7) n (%)
- 30-day mortality ([6]; fAUC24/MICEtest ≥ 462 (n = 27)): 0 (0.0) n (%)
- 90-day mortality ([6]; fAUC24/MICEtest ≥ 462 (n = 27)): 3 (11.1) n (%)
- In-hospital mortality ([6]; fAUC24/MICEtest ≥ 462 (n = 27)): 2 (7.4) n (%)
- Readmission within 90 days after bacteraemia ([6]; fAUC24/MICEtest ≥ 462 (n = 27)): 8 (29.6) n (%)
- Relapse ([6]; fAUC24/MICEtest ≥ 462 (n = 27)): 3 (11.1) n (%)
- Treatment failure ([6]; fAUC24/MICEtest ≥ 462 (n = 27)): 1 (3.7) n (%)
- Odds ratio (95% CI) of treatment failure for fAUC24/MICEtest ≥ 462, multivariable ([6]; logistic regression adjusted for CCI, immunosuppressed state, Pitt bacteraemia score): 0.099 (0.005–0.562)
- Odds ratio (95% CI) of treatment failure for fAUC24/MICEtest ≥ 462, univariable ([6]; logistic regression, univariable): 0.072 (0.004–0.389)
- incidence of treatment failure ([6]; patients with fAUC24/MICEtest < 462): 34.7%
- incidence of treatment failure ([6]; patients with fAUC24/MICEtest ≥ 462): 3.7%
- inter-individual variability (CV%) for clearance (CL) [7]: 22.1%
- inter-individual variability (CV%) for volume of distribution (V) [7]: 26.7%
- residual variability [7]: 15.6%
